Test results taken from patent US12048766B2, “Gamma polyglutamated tetrahydrofolates and uses thereof” (L.E.A.F. HOLDINGS GROUP LLC, priority 2018, dated 2024).

How the values were obtained:
AML12 liver cells = experiment: Toxicity on AML12 liver cells; format: cell-based; details: all doses studied (16 to 128 nM); 48 hours; FIG. 14
From the text: (§1) Methodologies used for cell line AML12 (non-cancerous liver cells) and CCD841 (non-cancerous colon epithelial cells) are similar to the methods used for cancer cells.

[1] = test system: CCD841 colon epithelium cells; experiment: Toxicity on CCD841 colon epithelium cells; format: cell-based; details: all concentrations tested (16 to 128 nM); 48 hours; FIG. 15
From the text: as §1

HT-29 (colon cancer) = experiment: CellTiter-Glo luminescent cell viability assay, HT-29; format: cell-based, human; details: 48 hours, FIG. 3
Protocol: Luciferase luminescence were recorded for each well.

| Structure (SMILES) | reduction in AML12 liver cell counts (AML12 liver cells) | decrease in the number of CCD841 colon epithelium cells [1] | potency rank among test articles (HT-29 (colon cancer)) |
| --- | --- | --- | --- |
| Nc1nc2[nH]cc(CCc3ccc(C(=O)N[C@@H](CCC(=O)O)C(=O)O)cc3)c2c(=O)[nH]1 [pemetrexed] | approximately 40% | ≥ 50% |  |
| Nc1nc(=O)c2c(CCc3ccc(C(=O)N[C@@H](CCC(=O)N[C@@H](CCC(=O)N[C@@H](CCC(=O)N[C@@H](CCC(=O)N[C@@H](CCC(=O)N[C@@H](CCC(=O)O)C(=O)O)C(=O)O)C(=O)O)C(=O)O)C(=O)O)C(=O)O)cc3)c[nH]c2[nH]1 [gG6, pemetrexed L-gamma hexaglutamate] |  |  | least potent |
